Data taken from ChEMBL document CHEMBL1201862, “PubChem BioAssay data set” (2004).
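In this assay, cells in 96-well plates receive the compound at five concentrations for 48 hours. Endpoints are linearly interpolated between the surrounding concentrations. Here, GI50 denotes the concentration required for 50% inhibition of growth.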 Activity calls are given as the source filed them. No stated cut-off is given here; in the data, active = GI50 up to about 1.1 µM and inactive = higher.

Assays:
Experiment in all cases: NCI anticancer screen, dose series, 48 h
A498 = tested on: A498
CCRF-CEM = tested on: CCRF-CEM
MDA-MB-435 = tested on: MDA-MB-435
IGROV-1 = tested on: IGROV-1
Malme-3M = tested on: Malme-3M
HCT-15 = tested on: HCT-15
786-0 = tested on: 786-0
NCI-H23 = tested on: NCI-H23
A549 = tested on: A549
OVCAR-3 = tested on: OVCAR-3
COLO 205 = tested on: COLO 205
HCT-116 = tested on: HCT-116
SK-OV-3 = tested on: SK-OV-3
SNB-19 = tested on: SNB-19
LOX IMVI = tested on: LOX IMVI
SK-MEL-28 = tested on: SK-MEL-28
HOP-62 = tested on: HOP-62
NCI-H226 = tested on: NCI-H226
NCI-H460 = tested on: NCI-H460
K562 = tested on: K562
SK-MEL-2 = tested on: SK-MEL-2
PC-3 = tested on: PC-3
UO-31 = tested on: UO-31
SK-MEL-5 = tested on: SK-MEL-5
MDA-N = tested on: MDA-N
EKVX = tested on: EKVX
SF-295 = tested on: SF-295
NCI/ADR-RES = tested on: NCI/ADR-RES
HL-60 = tested on: HL-60
SF-268 = tested on: SF-268
MOLT-4 = tested on: MOLT-4
BT-549 = tested on: BT-549
HT-29 = tested on: HT-29
ACHN = tested on: ACHN
U-251 = tested on: U-251
UACC-257 = tested on: UACC-257
OVCAR-5 = tested on: OVCAR-5
MCF7 = tested on: MCF7
DU-145 = tested on: DU-145
Hs-578T = tested on: Hs-578T
CAKI-1 = tested on: CAKI-1
HOP-92 = tested on: HOP-92
OVCAR-4 = tested on: OVCAR-4
NCI-H522 = tested on: NCI-H522
KM12 = tested on: KM12
SN12C = tested on: SN12C
OVCAR-8 = tested on: OVCAR-8
TK-10 = tested on: TK-10
M14 = tested on: M14
SW-620 = tested on: SW-620
UACC-62 = tested on: UACC-62
SF-539 = tested on: SF-539
RXF 393 = tested on: RXF 393
SNB-75 = tested on: SNB-75
MDA-MB-231 = tested on: MDA-MB-231
SR = tested on: SR
RPMI-8226 = tested on: RPMI-8226
T47D = tested on: T47D

SMILES: Cc1cc(C)c(S(=O)(=O)N2CCN(S(=O)(=O)c3c(C)cc(C)cc3C)OCCCCCO2)c(C)c1
- GI50 (A498): > 100 µM (inactive)
- GI50 (CCRF-CEM): > 100 µM (inactive)
- GI50 (MDA-MB-435): > 100 µM (inactive)
- GI50 (IGROV-1): > 100 µM (inactive)
- GI50 (Malme-3M): > 100 µM (inactive)
- GI50 (HCT-15): > 100 µM
- GI50 (786-0): > 100 µM (inactive)
- GI50 (NCI-H23): > 100 µM (inactive)
- GI50 (A549): > 100 µM (inactive)
- GI50 (OVCAR-3): > 100 µM (inactive)
- GI50 (COLO 205): > 100 µM (inactive)
- GI50 (HCT-116): > 100 µM (inactive)
- GI50 (SK-OV-3): > 100 µM (inactive)
- GI50 (SNB-19): > 100 µM (inactive)
- GI50 (LOX IMVI): > 100 µM (inactive)
- GI50 (SK-MEL-28): > 100 µM (inactive)
- GI50 (HOP-62): > 100 µM (inactive)
- GI50 (NCI-H226): > 100 µM (inactive)
- GI50 (NCI-H460): > 100 µM (inactive)
- GI50 (K562): > 100 µM (inactive)
- GI50 (SK-MEL-2): > 100 µM (inactive)
- GI50 (PC-3): 6.22 µM (inactive)
- GI50 (UO-31): > 100 µM (inactive)
- GI50 (SK-MEL-5): > 100 µM (inactive)
- GI50 (MDA-N): > 100 µM (inactive)
- GI50 (EKVX): > 100 µM (inactive)
- GI50 (SF-295): > 100 µM (inactive)
- GI50 (NCI/ADR-RES): > 100 µM (inactive)
- GI50 (HL-60): > 100 µM (inactive)
- GI50 (SF-268): > 100 µM (inactive)
- GI50 (MOLT-4): > 100 µM (inactive)
- GI50 (BT-549): > 100 µM (inactive)
- GI50 (HT-29): > 100 µM (inactive)
- GI50 (ACHN): > 100 µM (inactive)
- GI50 (U-251): > 100 µM (inactive)
- GI50 (UACC-257): > 100 µM (inactive)
- GI50 (OVCAR-5): > 100 µM (inactive)
- GI50 (MCF7): > 100 µM (inactive)
- GI50 (DU-145): > 100 µM (inactive)
- GI50 (Hs-578T): > 100 µM (inactive)
- GI50 (CAKI-1): > 100 µM (inactive)
- GI50 (HOP-92): 62.1 µM (inactive)
- GI50 (OVCAR-4): > 100 µM (inactive)
- GI50 (NCI-H522): > 100 µM (inactive)
- GI50 (KM12): > 100 µM (inactive)
- GI50 (SN12C): > 100 µM (inactive)
- GI50 (OVCAR-8): > 100 µM (inactive)
- GI50 (TK-10): > 100 µM (inactive)
- GI50 (M14): > 100 µM (inactive)
- GI50 (SW-620): > 100 µM (inactive)
- GI50 (UACC-62): > 100 µM (inactive)

SMILES: COc1cccc(C(=O)Oc2ccc(OS(=O)(=O)c3ccc(C)cc3)cc2)c1C#N
- GI50 (CCRF-CEM): 47.5 µM (inactive)
- GI50 (MDA-MB-435): 55.5 µM (inactive)
- GI50 (IGROV-1): 29 µM (inactive)
- GI50 (Malme-3M): 32.4 µM (inactive)
- GI50 (HCT-15): 74 µM
- GI50 (786-0): 86.9 µM (inactive)
- GI50 (SF-539): > 100 µM (inactive)
- GI50 (NCI-H23): 50.4 µM (inactive)
- GI50 (A549): 23.6 µM (inactive)
- GI50 (OVCAR-3): 29.9 µM (inactive)
- GI50 (COLO 205): 71.4 µM (inactive)
- GI50 (RXF 393): 37.6 µM (inactive)
- GI50 (HCT-116): 41.7 µM (inactive)
- GI50 (SNB-19): > 100 µM (inactive)
- GI50 (LOX IMVI): > 100 µM (inactive)
- GI50 (SK-MEL-28): > 100 µM (inactive)
- GI50 (HOP-62): > 100 µM (inactive)
- GI50 (NCI-H226): > 100 µM (inactive)
- GI50 (NCI-H460): 49.5 µM (inactive)
- GI50 (K562): 43 µM (inactive)
- GI50 (SK-MEL-2): 66.5 µM (inactive)
- GI50 (PC-3): 43.3 µM (inactive)
- GI50 (UO-31): 28.3 µM (inactive)
- GI50 (SK-MEL-5): 11.4 µM (inactive)
- GI50 (MDA-N): 68.2 µM (inactive)
- GI50 (EKVX): 59.8 µM (inactive)
- GI50 (SF-295): 55.6 µM (inactive)
- GI50 (NCI/ADR-RES): 33 µM (inactive)
- GI50 (HL-60): 34.1 µM (inactive)
- GI50 (SF-268): > 100 µM (inactive)
- GI50 (SNB-75): > 100 µM (inactive)
- GI50 (MOLT-4): 35.7 µM (inactive)
- GI50 (HT-29): 78.5 µM (inactive)
- GI50 (MDA-MB-231): 65.6 µM (inactive)
- GI50 (ACHN): 94 µM (inactive)
- GI50 (U-251): > 100 µM (inactive)
- GI50 (UACC-257): 28.6 µM (inactive)
- GI50 (SR): 47.9 µM (inactive)
- GI50 (OVCAR-5): > 100 µM (inactive)
- GI50 (MCF7): 49.7 µM (inactive)
- GI50 (DU-145): 93.1 µM (inactive)
- GI50 (Hs-578T): 86.7 µM (inactive)
- GI50 (CAKI-1): > 100 µM (inactive)
- GI50 (HOP-92): 41.6 µM (inactive)
- GI50 (OVCAR-4): 52.5 µM (inactive)
- GI50 (NCI-H522): 86.7 µM (inactive)
- GI50 (KM12): 61.1 µM (inactive)
- GI50 (SN12C): > 100 µM (inactive)
- GI50 (OVCAR-8): 66.8 µM (inactive)
- GI50 (RPMI-8226): 36.8 µM (inactive)
- GI50 (TK-10): 78.7 µM (inactive)
- GI50 (M14): 47.9 µM (inactive)
- GI50 (T47D): 20.1 µM (inactive)
- GI50 (SW-620): > 100 µM (inactive)
- GI50 (UACC-62): 87.3 µM (inactive)
